Data set [1] is described as follows: Body weight, growth and organ weights, 1 week pilot study. It is filed as in vivo, mouse. The settings on record: 1 week study; g/total body weight. The method, then: Saline, antisense, mismatch control and octreotide samples were prepared, and coded for blinding. Animals were given a subcutaneous dose of saline every second day, and mismatch control or antisense with administration on days 0, 2, 4, 6. Animals were given twice daily doses of 25 μg octreotide. Animals were housed 4 per cage, for the duration of one week. They had access to a pre-determined quantity of standard mouse food and water at all times throughout the experiment. They were housed in a quiet, temperature- and humidity-maintained environment for the entirety of the study. At day 0 and before treatment on each day or second day, the animals had their body weight and food intake measured, enabling the correct dose of agent to be administered. The animals were monitored closely for any changes in fur, skin, eye, locomotion or other changes in behavior. No problems were observed. Every second day from day −7 to day 7 body weight and food intake were measured.
The serum remaining following the insulin-like growth factor-1 assay was isolated and stored at −80° C. The whole liver was removed rapidly for weighing and snap-frozen in labelled aluminum parcels by submersion in liquid-nitrogen. […]
This confirms published results of others. […] Weight was measured in two ways: weight trend (live animal), and final carcass weight. […]

Data set [2] concerns serum IGF-I. Briefly: Serum IGF-I, additional 1 week study in mice. The class given is in vivo, mouse. Conditions: 50 mg/kg once every 2 days, day 7. The method, then: (§1) Male Balb/C(a) mice were prepared and grouped for analysis as in Example 18 above.
Animals (n=10/group) were designated to the following treatment groups:
(§2) Animals were treated and serum IGF-I levels were measured as in Example 18 above. Briefly, for the one-week study, mice were given a subcutaneous dose of saline every second day, and mismatch control or antisense with administration on days 0, 2, 4, 6. On day 7, the animals were anaesthetized with pentobarbital and non-fasting blood samples collected exactly 5 minutes later from the retrobulbar plexus through heparinized capillary tubes under light ether anesthesia. Serum IGF-I measurement was done by radioimmunoassay at day 7.

Data set [3] deals with growth hormone receptor mRNA. In words: Growth hormone receptor mRNA levels in liver, additional 1 week study. It is filed as in vivo, mouse. Conditions: one-week study. The method, then:
as §1, §2
Growth hormone receptor mRNA levels in liver tissue samples from treated and untreated mice in this one-week study were assayed. The growth hormone receptor antisense inhibitor ISIS 227446 reduced growth hormone receptor mRNA levels in liver after the one-week study by 72% at the 50 mg/kg dose, relative to saline control (p<0.0001). The 30 mg/kg dose of ISIS 227446 yielded a 50% decrease in growth hormone receptor mRNA (p<0.0001). The unrelated control oligonucleotide ISIS 260120, at 50 mg/kg, reduced growth hormone receptor mRNA levels by approximately 15% (p>0.05).

Data set [4] relates to growth hormone receptor mRNA. Briefly: Growth hormone receptor mRNA levels in liver, two-week mouse study. It is filed as in vivo. The method, then:
(§3) A two-week study was done in similar fashion to the one-week study in Example 18, this time using ISIS 227446 at doses of 3, 5, 10, 20 and 30 mg/kg. The mismatch control was given at the same doses. Mice were treated with antisense compound or saline every other day for 14 days.
Growth hormone receptor mRNA levels in liver tissue samples from treated and untreated mice in this two-week study were assayed. The growth hormone receptor antisense inhibitor ISIS 227446 reduced growth hormone receptor mRNA levels in liver after the two-week study by 50% at the 20 mg/kg dose relative to saline control (p<0.001). The 30 mg/kg dose of ISIS 227446 yielded a 53% decrease in growth hormone receptor mRNA (p<0.0001). The mismatch control oligonucleotide ISIS 261303 (SEQ ID NO: 267), at 30 mg/kg, reduced growth hormone receptor mRNA levels by approximately 3%.

Data set [5] deals with serum IGF-I. In words: Serum IGF-I, two-week mouse study. The settings on record: for % decrease relative to 3 mg/kg ISIS 227446: day 14. The class given is in vivo. On the procedure: as §3
P-values were determined by t-test.

In the oligonucleotide strings, read from the 5' end, every base follows the letter of its sugar. An asterisk marks phosphorothioate; unmarked linkages are phosphodiester. Other units and linkages are bracketed, terminal groups are in braces. A string of capitals states the bases alone. e = 2'-O-(2-methoxyethyl) (MOE); [5mC] = 5-methylcytosine; d = 2'-deoxy (DNA)

Take “acaaagatccatacctgaga (eA*e[5mC]*eA*eA*eA*dG*dA*dT*d[5mC]*d[5mC]*dA*dT*dA*d[5mC]*d[5mC]*eT*eG*eA*eG*eA; antisense) [ISIS 227446]”: the liver weight entry in data set [1] is “unaffected”. In data set [2], the “reduction of serum IGF-I relative to saline control” value worked out at 33%. Moreover, the “reduction of serum IGF-I relative to the unrelated control” value in data set [2] was determined as 20%. The “decrease in growth hormone receptor mRNA in liver” value in data set [3] (30 mg/kg) is 50%; in data set [4] (30 mg/kg), 53%. Besides, the “reduction of growth hormone receptor mRNA levels in liver relative to saline control” value in data set [3] (50 mg/kg) came out at 72%; in data set [4] (20 mg/kg), 50%. For the same substance, the “Day 14 serum IGF-I” value in data set [5] (3 mg/kg every other day for 14 days) is 214 ng/mL; in data set [5] (5 mg/kg every other day for 14 days), 194 ng/mL; in data set [5] (10 mg/kg every other day for 14 days), 130 ng/mL; in data set [5] (20 mg/kg every other day for 14 days), 122 ng/mL; in data set [5] (30 mg/kg every other day for 14 days) it was 126 ng/mL. In addition, the “effect on serum IGF-I levels” value in data set [5] (3 mg/kg, 14 days, equivalent to saline control (separate experiment)) was “no effect”. Also, the “% decrease relative to 3 mg/kg ISIS 227446” value amounted to 0% in data set [5] (3 mg/kg); 9% in data set [5] (5 mg/kg); 39% in data set [5] (10 mg/kg); 43% in data set [5] (20 mg/kg); 41% in data set [5] (30 mg/kg). Besides, in data set [5] (>10 mg/kg, 14 days), the “decrease in serum IGF-I levels compared to 3 mg/kg” value is recorded as 39-43%.

The values above are taken from patent publication US8637484B2, “Modulation of growth hormone receptor expression and insulin-like growth factor expression” (Antisense Therapeutic Limited, priority 2003, dated 2014).
